Source: patent US20170325453A1, “Herbicidal Mixtures for Controlling Herbicide-Resistant Dicotyledonous Plants” (priority 2014, published 2017)

How the values were obtained:
Format in all cases: in vivo
[1] = tested on: Trichachne insularis (Digitaria insularis); experiment: Example 2: visual control of Trichachne insularis (Digitaria insularis), post emergence (Table 16); conditions: visual control 0-100%, dose per numbered treatment
Protocol: (§1) The study was carried out in Brazil.
(§2) All treatments were applied in established weeds, post emergence, before weeds flowering. The treatments were applied using backpressure equipment (nozzles TEEJET8002) with a water consumption of 150 liters per hectare, 1.2 BAR.
(§3) 14, 21, 28, 35 and 42 days after application (“DAA”) evaluations were carried out, i.e. measuring the control of Trichachne insularis (Digitaria insularis) and its regrowth. The assessment consisted in a visual control level of weeds in which 0% related to absence of control and 100% to total control of weeds. The regrowth were assessed by comparing the emergence of new tillers in treatments versus the emergence of new tillers in check (non-treated control).
(§4) An analysis was carried out for viability rates applied through a variance analysis and a mean comparison test of Student—Newman-Keuls ([…]) with the ARM® statistical analysis package.

[2] = tested on: Trichachne insularis (Digitaria insularis); experiment: Example 2: regrowth of D. insularis, emergence of new tillers versus non-treated check (Table 17); parameters: scale not given here; conditions: post emergence; for regrowth of D. insularis 35 DAA: 35 days after application; for regrowth of D. insularis 42 DAA: 42 days after application
Protocol: as §1, §2, §3, §4

Conyza bonariensis = experiment: Example 3: control of Conyza bonariensis, viable weeds versus control plot, synergy by Colby; parameters: key: % control, viable weeds vs. untreated control plot; conditions: weeds 20 cm height at application
From the text: Synergism can be described as an interaction where the combined effect of two or more compounds is greater than the sum of the individual effects of each of the compounds. The presence of a synergistic effect in terms of percent control, between two mixing partners (X and Y) can be calculated using the Colby equation (Colby, S. R., 1967, Calculating Synergistic and Antagonistic Responses in Herbicide Combinations, Weeds, 15, 21-22):
When the observed combined control effect is greater than the expected (calculated) combined control effect (E), then the combined effect is synergistic. The synergistic effect may also be present when the observed combined control effect is equal to the expected (calculates) combined control effect, especially when control values over 90 are calculated.
Analogously, the Colby's equation can be used to determine synergism of 3-way and higher mixtures:
as §1
The applications carried out by a back pressure sprayer with T-jet nozzles (XR-110.02) covering 200 liters per hectare. At the time of application, Conyza bonariensis weeds were 20 cm height. The results assessed by the comparison between viable weeds at the control plot and the viable weeds at the treatments plots. To the experiment, the plot consist of a 20 m2 area (5 meters length and 4 meters width).
The synergy was calculated by Colby formula and it expansion for three-way mixtures

CCSC(C)CC1CC(=O)C(/C(CC)=N/OC/C=C/Cl)=C(O)C1 (racemic) [Clethodim, (RS)-2-[(E)-1-[(E)-3-chloroallyloxyimino]propyl]-5-[2-(ethylthio)propyl]-3-hydroxycyclohex-2-en-1-one]
% of control, 28 DAA, Proved [1]: 62.5% | % of control, 35 DAA, Proved [1]: 60% | % of control, 42 DAA, Proved [1]: 52.5% | regrowth of D. insularis 35 DAA [2]: 28 | regrowth of D. insularis 42 DAA [2]: 33.75

O=C(O)CNCP(=O)(O)O [Glyphosate, N-(phosphonomethyl)glycine]
Control of Conyza bonariensis 7 DAA Field Results (Conyza bonariensis; listed as 1 Glyphosate): 32.50 | Control of Conyza bonariensis 7 DAA Field Results (Conyza bonariensis; listed as 3 Glyphosate): 15.00 | Control of Conyza bonariensis 15 DAA Field Results (Conyza bonariensis; listed as 1 Glyphosate): 65.00 | Control of Conyza bonariensis 15 DAA Field Results (Conyza bonariensis; listed as 3 Glyphosate): 27.50 | % of control, 28 DAA, Proved [1]: 8.75% | % of control, 35 DAA, Proved [1]: 6.25% | % of control, 42 DAA, Proved [1]: 3.75% | regrowth of D. insularis 35 DAA [2]: 61.25 | regrowth of D. insularis 42 DAA [2]: 67.5

CC(C)N(C)S(=O)(=O)NC(=O)c1cc(-n2c(=O)cc(C(F)(F)F)n(C)c2=O)c(F)cc1Cl [Saflufenacil, N′-{2-chloro-4-fluoro-5-[1,2,3,6-tetrahydro-3-methyl-2,6-dioxo-4-(trifluoromethyl)pyrimidin-1-yl]benzoyl}-N-isopropyl-N-methylsulfannide]
Control of Conyza bonariensis 7 DAA Field Results (Conyza bonariensis; listed as 4 Saflufenacil): 60.00 | Control of Conyza bonariensis 7 DAA Field Results (Conyza bonariensis; listed as 5 Saflufenacil): 86.25 | Control of Conyza bonariensis 15 DAA Field Results (Conyza bonariensis; listed as 4 Saflufenacil): 56.25 | Control of Conyza bonariensis 15 DAA Field Results (Conyza bonariensis; listed as 5 Saflufenacil): 73.75 | % of control, 28 DAA, Proved ([1]; listed as 05. Saflufenacil): 5% | % of control, 28 DAA, Proved ([1]; listed as 06. Saflufenacil): 6.25% | % of control, 35 DAA, Proved ([1]; listed as 05. Saflufenacil): 5% | % of control, 35 DAA, Proved ([1]; listed as 06. Saflufenacil): 6.25% | % of control, 42 DAA, Proved [1]: 2.5% | regrowth of D. insularis 35 DAA ([2]; listed as 05. Saflufenacil): 63.75 | regrowth of D. insularis 35 DAA ([2]; listed as 06. Saflufenacil): 66.5 | regrowth of D. insularis 42 DAA ([2]; listed as 05. Saflufenacil): 72.5 | regrowth of D. insularis 42 DAA ([2]; listed as 06. Saflufenacil): 78.75
